The text below walks through data of patent publication US11834453B2, “Substituted pyrimido[5,4-d]pyrimidines as HER2 inhibitors” (Array BioPharma Inc., priority 2020, dated 2023).

A word on the pIC50: it is −log10 of the IC50, conventionally taken in molar units. By efflux ratio is commonly meant a quotient of directional permeabilities that is used to spot active efflux.

pIC50: −log10 of the molar value. Bounds are passed on as bounds.

The target in one series is ErbB2 WT (Homo sapiens (Human), UniProt P04626). Nature of the series: ErbB enzyme assay (CisBio HTRF KinEASE-TK), Assay 2. It is filed as biochemical. In outline:
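Readout is HTRF KinEASE-TK, using Sa-XL665 and cryptate antibody for 1 h at 22 °C, as percent of control between DMSO-only (100) and pre-quenched (0) reactions. The kinase reaction runs 30 min at 22 °C with 1 mM ATP and 250 nM biotinylated TK substrate, in HEPES pH 7.4 with MgCl2 and 2% DMSO.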
(Time-resolved FRET reads energy transfer from a long-lived donor to a nearby acceptor.)

For series [1], the target named is ErbB2 insYVMA (HER2-YVMA, SEQ ID NO: 2) (Homo sapiens, UniProt P04626, INS775YVMA/P1170A). The experiment in a line: biochemical. The settings on record: ErbB2 insYVMA enzyme assay; read-out: Assay 1 IC50.
ErbB2 insYVMA (HER2-YVMA, SEQ ID NO: 2), sequence (P04626 with tags, fused parts or gaps INS775YVMA/P1170A limits assumed): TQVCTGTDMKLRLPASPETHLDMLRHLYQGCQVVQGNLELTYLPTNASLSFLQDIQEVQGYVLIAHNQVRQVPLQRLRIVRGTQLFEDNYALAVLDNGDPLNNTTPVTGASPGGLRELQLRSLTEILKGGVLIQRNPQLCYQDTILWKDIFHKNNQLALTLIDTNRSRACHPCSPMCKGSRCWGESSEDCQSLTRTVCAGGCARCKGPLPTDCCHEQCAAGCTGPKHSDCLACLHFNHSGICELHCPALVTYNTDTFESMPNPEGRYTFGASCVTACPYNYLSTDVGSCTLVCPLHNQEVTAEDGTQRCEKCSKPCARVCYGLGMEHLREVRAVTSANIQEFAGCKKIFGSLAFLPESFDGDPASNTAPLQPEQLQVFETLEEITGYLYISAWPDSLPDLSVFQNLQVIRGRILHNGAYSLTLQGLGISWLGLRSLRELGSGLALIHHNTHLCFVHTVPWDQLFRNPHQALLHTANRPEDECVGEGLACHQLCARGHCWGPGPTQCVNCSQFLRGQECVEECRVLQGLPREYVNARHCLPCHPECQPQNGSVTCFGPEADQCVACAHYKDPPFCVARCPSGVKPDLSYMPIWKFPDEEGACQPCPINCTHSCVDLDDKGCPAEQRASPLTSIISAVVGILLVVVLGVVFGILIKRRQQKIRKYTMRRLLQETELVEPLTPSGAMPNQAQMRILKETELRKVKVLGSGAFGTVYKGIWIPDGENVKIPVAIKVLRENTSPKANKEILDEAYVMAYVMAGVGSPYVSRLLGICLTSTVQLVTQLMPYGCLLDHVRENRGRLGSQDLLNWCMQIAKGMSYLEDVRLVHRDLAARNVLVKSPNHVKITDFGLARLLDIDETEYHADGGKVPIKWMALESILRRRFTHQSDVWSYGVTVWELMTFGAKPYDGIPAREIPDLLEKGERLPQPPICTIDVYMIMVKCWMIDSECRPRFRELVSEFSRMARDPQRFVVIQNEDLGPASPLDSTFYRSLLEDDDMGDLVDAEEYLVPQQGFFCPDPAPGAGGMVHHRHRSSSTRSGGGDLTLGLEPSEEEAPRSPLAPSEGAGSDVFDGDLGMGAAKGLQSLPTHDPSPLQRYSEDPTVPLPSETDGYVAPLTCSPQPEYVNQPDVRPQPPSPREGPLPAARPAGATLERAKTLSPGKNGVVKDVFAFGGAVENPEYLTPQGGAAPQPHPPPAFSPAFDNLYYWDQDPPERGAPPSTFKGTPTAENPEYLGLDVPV
The target of series [2] is ErbB2 with Exon 20 YVMA insertion (HER2-YVMA) (Homo sapiens (Human), UniProt P04626, INS775YVMA). The experiment in a line: Cellular phosphorylation assay, constitutive ErbB2 phosphorylation (Y1196) in engineered NIH 3T3 cells, Assay 4. It is filed as cell-based. In outline:
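In-cell Western in NIH 3T3 cells carrying ErbB2 exon 20 YVMA insertion, with no ligand stimulation. One hour compound exposure at 37 °C before fixation and anti-pY1196 plus GAPDH staining with dual-wavelength fluorescence. IC50 derived after GAPDH normalization.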

The next series has as its target MDR1 (P-gp) (Homo sapiens (Human), UniProt P08183). Nature of the series: MDR1 transfected LLC-PK1 permeability/efflux, Assay 6. The settings on record: pig.
The next series has as its target EGFR (Homo sapiens (Human), UniProt P00533). The experiment in a line: ErbB enzyme assay (CisBio HTRF KinEASE-TK), Assay 3. It is filed as biochemical. In outline: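 IC50 was taken where a 4-parameter logistic fit crossed 50 percent of control (DMSO 100, pre-quenched 0), read by ratiometric HTRF. Reactions ran 30 min at 22 °C with 1 mM ATP and 250 nM TK-substrate biotin in pH 7.4 HEPES buffer with MgCl2, Triton X-100 and 2% DMSO.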

A further series addresses BCRP (Homo sapiens (Human), UniProt Q9UNQ0). Nature of the series: BCRP transfected MDCKII canine Mdr1 knockout permeability/efflux, Assay 9. The settings on record: dog.
The next series concerns the target EGFR wild type (EGFR WT) (Homo sapiens (Human), UniProt P00533). The experiment in a line: Cellular phosphorylation assay, EGF-stimulated EGFR phosphorylation in engineered NIH 3T3 cells, Phospho-EGFR DuoSet IC ELISA, Assay 5. It is filed as cell-based. In outline: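 Phospho-EGFR ELISA on lysates of engineered NIH 3T3 EGFR WT cells, IC50 derived from concentration curves. Cells plated at 20,000/well overnight, given compound dilutions 1 h at 37 °C, then rEGF 100 ng/ml for a further 10 min before lysis.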
On the technique in general: In an ELISA, binding on a coated surface is turned into a signal by an enzyme label.

Setting [3] is: LLC-PK1, Assay 6 Pe Ratio, efflux ratio Papp(B-A)/Papp(A-B), MDR1 transfected LLC-PK1.
Where [4] appears, read: Assay 9 Pe Ratio, efflux ratio Papp(B-A)/Papp(A-B), BCRP transfected MDCKII canine Mdr1 knockout.

ErbB2 WT, sequence (P04626 23-1255): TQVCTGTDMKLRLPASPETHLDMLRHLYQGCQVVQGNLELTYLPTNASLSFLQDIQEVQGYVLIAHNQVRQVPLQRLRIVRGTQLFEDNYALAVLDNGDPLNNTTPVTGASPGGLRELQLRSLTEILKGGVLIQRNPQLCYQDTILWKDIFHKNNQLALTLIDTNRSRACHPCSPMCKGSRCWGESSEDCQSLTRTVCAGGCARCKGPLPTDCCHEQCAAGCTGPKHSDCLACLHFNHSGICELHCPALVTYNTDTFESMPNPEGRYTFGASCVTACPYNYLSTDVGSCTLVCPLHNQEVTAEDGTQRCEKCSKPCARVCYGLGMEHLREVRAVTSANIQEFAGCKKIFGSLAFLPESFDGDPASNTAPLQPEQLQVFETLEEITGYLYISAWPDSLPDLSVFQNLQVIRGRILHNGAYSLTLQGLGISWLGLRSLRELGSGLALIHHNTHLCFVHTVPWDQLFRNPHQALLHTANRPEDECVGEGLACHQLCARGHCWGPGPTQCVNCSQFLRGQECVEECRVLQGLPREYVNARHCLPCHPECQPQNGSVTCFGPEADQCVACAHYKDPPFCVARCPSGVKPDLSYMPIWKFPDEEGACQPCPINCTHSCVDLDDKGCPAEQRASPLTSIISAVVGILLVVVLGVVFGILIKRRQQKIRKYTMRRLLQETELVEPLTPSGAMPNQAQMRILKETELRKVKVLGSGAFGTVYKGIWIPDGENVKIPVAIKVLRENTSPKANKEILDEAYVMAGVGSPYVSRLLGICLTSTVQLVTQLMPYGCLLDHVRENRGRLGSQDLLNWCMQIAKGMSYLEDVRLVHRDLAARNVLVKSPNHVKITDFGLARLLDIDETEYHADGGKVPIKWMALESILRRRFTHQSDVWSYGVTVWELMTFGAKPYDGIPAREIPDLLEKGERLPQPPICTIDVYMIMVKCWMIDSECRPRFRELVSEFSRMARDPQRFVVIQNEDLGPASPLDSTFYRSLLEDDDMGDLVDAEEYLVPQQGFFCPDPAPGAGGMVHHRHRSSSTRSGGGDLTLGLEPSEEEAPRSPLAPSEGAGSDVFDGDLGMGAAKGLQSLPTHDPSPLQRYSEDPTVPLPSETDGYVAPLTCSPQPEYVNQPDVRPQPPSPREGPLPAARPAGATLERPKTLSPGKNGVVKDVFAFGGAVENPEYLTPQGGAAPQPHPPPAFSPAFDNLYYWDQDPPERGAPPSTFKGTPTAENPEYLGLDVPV
EGFR, sequence (P00533 25-1210): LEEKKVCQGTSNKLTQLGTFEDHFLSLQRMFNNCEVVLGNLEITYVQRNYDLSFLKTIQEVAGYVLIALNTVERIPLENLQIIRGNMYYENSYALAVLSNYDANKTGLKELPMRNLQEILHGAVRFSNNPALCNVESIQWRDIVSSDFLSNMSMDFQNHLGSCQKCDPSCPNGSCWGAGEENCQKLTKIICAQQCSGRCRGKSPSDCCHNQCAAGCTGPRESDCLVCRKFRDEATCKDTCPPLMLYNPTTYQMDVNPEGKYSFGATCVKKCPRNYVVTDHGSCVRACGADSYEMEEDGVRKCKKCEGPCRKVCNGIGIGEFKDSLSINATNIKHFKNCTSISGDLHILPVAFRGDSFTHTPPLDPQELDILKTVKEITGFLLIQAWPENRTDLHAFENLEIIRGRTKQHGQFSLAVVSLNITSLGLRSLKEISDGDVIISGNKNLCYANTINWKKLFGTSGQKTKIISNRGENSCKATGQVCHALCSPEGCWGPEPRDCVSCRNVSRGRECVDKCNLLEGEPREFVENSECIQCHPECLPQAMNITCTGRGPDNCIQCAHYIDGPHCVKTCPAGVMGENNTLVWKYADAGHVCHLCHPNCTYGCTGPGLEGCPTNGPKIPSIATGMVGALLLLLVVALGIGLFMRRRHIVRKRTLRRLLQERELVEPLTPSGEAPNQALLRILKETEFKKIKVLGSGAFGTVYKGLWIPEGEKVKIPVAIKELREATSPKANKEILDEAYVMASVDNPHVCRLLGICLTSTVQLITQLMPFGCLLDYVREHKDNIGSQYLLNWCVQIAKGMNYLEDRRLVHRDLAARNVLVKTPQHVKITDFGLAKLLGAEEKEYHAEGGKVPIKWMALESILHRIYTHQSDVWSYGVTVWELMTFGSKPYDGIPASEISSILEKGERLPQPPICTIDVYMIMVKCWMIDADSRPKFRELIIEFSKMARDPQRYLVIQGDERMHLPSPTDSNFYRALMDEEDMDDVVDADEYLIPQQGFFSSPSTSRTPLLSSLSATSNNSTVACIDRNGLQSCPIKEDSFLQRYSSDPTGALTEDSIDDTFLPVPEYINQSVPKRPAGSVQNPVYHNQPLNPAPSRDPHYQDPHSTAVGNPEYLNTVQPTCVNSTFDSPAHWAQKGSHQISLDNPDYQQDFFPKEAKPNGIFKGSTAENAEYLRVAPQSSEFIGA
EGFR wild type (EGFR WT), sequence (P00533 25-1210): as above

Turning to `Cc1cc(Nc2ncnc3cnc(N(C)CC(C)(C)O)nc23)ccc1Oc1ccc2c(c1)ncn2C` [Example 163, 2-methyl-1-(methyl(8-((3-methyl-4-((1-methyl-1H-benzo[d]imidazol-5-yl)oxy)phenyl)amino)pyrimido[5,4-d]pyrimidin-2-yl)amino)propan-2-ol], the pIC50 was 7.43 at ErbB2 WT; 7.55 in series [1]; 7.67 in series [2]; 5.35 against EGFR; not above 5.30 at EGFR wild type (EGFR WT). Also, the efflux ratio at 2 h, 1 μM amounted to 1.8 at MDR1 (P-gp) (setting [3]) and 2.7 on BCRP (setting [4]).
For the compound `Cc1cc(Nc2ncnc3cnc(N4C[C@H]5C[C@@H]4CO5)nc23)ccc1Oc1cc(F)c2c(c1)ncn2C` [Example 204, 6-((1R,4R)-2-oxa-5-azabicyclo[2.2.1]heptan-5-yl)-N-(4-((7-fluoro-1-methyl-1H-benzo[d]imidazol-5-yl)oxy)-3-methylphenyl)pyrimido[5,4-d]pyrimidin-4-amine], the pIC50 was 6.97 against ErbB2 WT; 7.50 in series [1]; 7.88 in series [2]; 5.09 on EGFR; not above 5.30 against EGFR wild type (EGFR WT). In addition, the efflux ratio at 2 h, 1 μM on MDR1 (P-gp) (setting [3]) was 1.3; on BCRP (setting [4]), 1.2.
For `Cc1cc(Nc2ncnc3cnc(NCC(F)F)nc23)ccc1Oc1cc(F)c2c(c1)ncn2C` [Example 207, N2-(2,2-difluoroethyl)-N8-(4-((7-fluoro-1-methyl-1H-benzo[d]imidazol-5-yl)oxy)-3-methylphenyl)pyrimido[5,4-d]pyrimidine-2,8-diamine], the pIC50 at ErbB2 WT is 7.35; in series [1], 7.65; in series [2] it was 7.77; against EGFR, 5.76; against EGFR wild type (EGFR WT) it was not above 5.30. Moreover, the efflux ratio at 2 h, 1 μM at MDR1 (P-gp) (setting [3]) stood at 1.6; on BCRP (setting [4]) it was 1.7.
In the case of `Cc1cc(Nc2ncnc3cnc(N4CCC45COC5)nc23)ccc1Oc1cc(F)c2c(c1)ncn2C` [Example 216, N-(4-((7-fluoro-1-methyl-1H-benzo[d]imidazol-5-yl)oxy)-3-methylphenyl)-6-(6-oxa-1-azaspiro[3.3]heptan-1-yl)pyrimido[5,4-d]pyrimidin-4-amine], the pIC50 against ErbB2 WT is 7.31; in series [1] it was 7.48; in series [2] it was 7.80; on EGFR, 5.63; on EGFR wild type (EGFR WT), not above 5.30. Besides, the efflux ratio at 2 h, 1 μM at MDR1 (P-gp) (LLC-PK1) is 1.7; at BCRP it was 0.9.
Turning to `Cc1cc(Nc2ncnc3cnc(N4CCCC4)nc23)ccc1Oc1ccc2c(c1)ncn2C` [Example 222], the negative logarithm of the IC50 (pIC50) is 7.39 against ErbB2 WT; 7.46 in series [1]; 7.41 in series [2]; not above 5.00 against EGFR; not above 5.30 against EGFR wild type (EGFR WT). The efflux ratio at 2 h, 1 μM on MDR1 (P-gp) (setting [3]) is 1; on BCRP (setting [4]) it was 1.6.
Turning to `Cc1ncc(-c2ncc3ncnc(Nc4ccc(Oc5ccc6c(c5)ncn6C)c(C)c4)c3n2)o1` [Example 223], the pIC50 is 7.00 against ErbB2 WT; 7.04 in series [1]; 7.90 in series [2]; not above 5.00 on EGFR; not above 5.30 on EGFR wild type (EGFR WT). The efflux ratio at 2 h, 1 μM on MDR1 (P-gp) (setting [3]) was found to be 1.9; at BCRP (setting [4]), 3.7.
For `Cc1cc(Nc2ncnc3cnc(-c4cnsc4)nc23)ccc1Oc1ccc2c(c1)ncn2C` [Example 228], the pIC50 on ErbB2 WT was 6.57; in series [1], 6.94; in series [2] it was 7.62; on EGFR, not above 5.00; against EGFR wild type (EGFR WT), not above 5.30. Besides, the efflux ratio at 2 h, 1 μM on MDR1 (P-gp) (setting [3]) stood at 1.1; at BCRP (setting [4]) it was 1.
Consider `Cc1cc(Nc2ncnc3cnc(-c4cccnc4)nc23)ccc1Oc1ccc2c(c1)ncn2C` [Example 233], for which the pIC50 was 7.38 on ErbB2 WT; 7.56 in series [1]; 7.80 in series [2]; 5.43 on EGFR; not above 5.30 at EGFR wild type (EGFR WT). Also, the results for the efflux ratio at 2 h, 1 μM at MDR1 (P-gp) (setting [3]) and at BCRP (setting [4]) were 1.5 and 1.6, respectively.
In the case of `Cc1cc(Nc2ncnc3cnc(N4CC5C(C4)C5(F)F)nc23)ccc1Oc1ccc2c(c1)ncn2C` (stereo not shown) [Example 234], the pIC50 was 6.78 at ErbB2 WT; 6.98 in series [1]; 7.41 in series [2]; not above 5.00 against EGFR; not above 5.30 against EGFR wild type (EGFR WT). The efflux ratio at 2 h, 1 μM at MDR1 (P-gp) (setting [3]) was 1.8; at BCRP (setting [4]), 5.2.
Take `Cc1cc(Nc2ncnc3cnc(-c4ccccn4)nc23)ccc1Oc1ccc2c(c1)ncn2C` [Example 239]: the pIC50 is 6.97 against ErbB2 WT; 6.90 in series [1]; 8.04 in series [2]; not above 5.00 against EGFR; not above 5.30 on EGFR wild type (EGFR WT). Moreover, the results for the efflux ratio at 2 h, 1 μM on MDR1 (P-gp) (setting [3]) and on BCRP (setting [4]) were 2.1 and 3.5, respectively.
Turning to `Cc1nc(-c2ncc3ncnc(Nc4ccc(Oc5ccc6c(c5)ncn6C)c(C)c4)c3n2)cs1` [Example 247], the pIC50 against ErbB2 WT was 7.01; in series [1] it was 7.09; in series [2] it was 8.46; against EGFR, not above 5.00; against EGFR wild type (EGFR WT), not above 5.30. Further, the efflux ratio at 2 h, 1 μM amounted to 1.6 on MDR1 (P-gp) (setting [3]) and 4.7 on BCRP (setting [4]).
Turning to `Cc1cc(Nc2ncnc3cnc(N4CCC[C@H]4C(F)(F)F)nc23)ccc1Oc1ccc2c(c1)ncn2C` [Example 249], the pIC50 against ErbB2 WT is 7.63; in series [1], 7.44; in series [2], 7.43; at EGFR, not above 5.00; against EGFR wild type (EGFR WT), not above 5.30. Moreover, the efflux ratio at 2 h, 1 μM was 0.3 at MDR1 (P-gp) (setting [3]) and 3 on BCRP (setting [4]).
Take `Cc1cc(Nc2ncnc3cnc(N4CC[C@H](C(F)F)C4)nc23)ccc1Oc1ccc2c(c1)ncn2C` [Example 252]: the pIC50 is 6.62 on ErbB2 WT; 7.03 in series [1]; 7.59 in series [2]; not above 5.00 against EGFR; not above 5.30 against EGFR wild type (EGFR WT). In addition, the results for the efflux ratio at 2 h, 1 μM at MDR1 (P-gp) (setting [3]) and on BCRP (setting [4]) were 0.7 and 2.6, respectively.
Turning to `Cc1cc(Nc2ncnc3cnc(N4CC[C@@H](C(F)F)C4)nc23)ccc1Oc1ccc2c(c1)ncn2C` [Example 253], the pIC50 on ErbB2 WT was 6.77; in series [1], 7.03; in series [2], 7.41; at EGFR, not above 5.00; against EGFR wild type (EGFR WT) it was not above 5.30. For the same compound, the efflux ratio at 2 h, 1 μM was 1.2 at MDR1 (P-gp) (setting [3]) and 2 at BCRP (setting [4]).
On to `Cc1cc(Nc2ncnc3cnc(N4C[C@H]5C[C@@H]4CO5)nc23)ccc1Oc1ccc2c(c1)ncn2C` [Example 262], for which the pIC50 is 6.93 on ErbB2 WT; 7.65 in series [1]; 7.36 in series [2]; not above 5.00 at EGFR; not above 5.30 against EGFR wild type (EGFR WT). Also, the efflux ratio at 2 h, 1 μM at MDR1 (P-gp) (setting [3]) was found to be 1.7; at BCRP (setting [4]), 2.7.
For `Cc1cc(Nc2ncnc3cnc(N4CCOC(C)(C)C4)nc23)ccc1Oc1ccc2c(c1)ncn2C` [Example 272], the pIC50 is 6.98 at ErbB2 WT; 7.17 in series [1]; 7.40 in series [2]; 5.05 at EGFR; not above 5.30 against EGFR wild type (EGFR WT). Besides, the efflux ratio at 2 h, 1 μM at MDR1 (P-gp) (setting [3]) came to 1.6; at BCRP (setting [4]), 0.6.
With `Cc1cc(Nc2ncnc3cnc(N4C[C@@H]5C[C@H]4CO5)nc23)ccc1Oc1ccc2c(c1)ncn2C` [Example 274], the pIC50 was 7.41 on ErbB2 WT; 7.51 in series [1]; 7.92 in series [2]; 5.49 at EGFR; not above 5.30 at EGFR wild type (EGFR WT). Besides, the efflux ratio at 2 h, 1 μM was 2.4 on MDR1 (P-gp) (setting [3]) and 1.7 at BCRP (setting [4]).
Take `Cc1cc(Nc2ncnc3cnc(N4CC5(CCO5)C4)nc23)ccc1Oc1ccc2c(c1)ncn2C` [Example 282]: the pIC50 is 7.08 against ErbB2 WT; 7.40 in series [1]; 7.58 in series [2]; not above 5.00 against EGFR; not above 5.30 against EGFR wild type (EGFR WT). In addition, the efflux ratio at 2 h, 1 μM at MDR1 (P-gp) (setting [3]) was 1.9; at BCRP (setting [4]) it was 3.5.
Consider `Cc1cc(Nc2ncnc3cnc(N(C)CC4CCO4)nc23)ccc1Oc1ccc2c(c1)ncn2C` (stereo not shown) [Example 350], for which the pIC50 was 7.08 against ErbB2 WT; 7.40 in series [1]; 7.58 in series [2]; not above 5.00 against EGFR; not above 5.30 against EGFR wild type (EGFR WT). Also, the efflux ratio at 2 h, 1 μM on MDR1 (P-gp) (setting [3]) was determined as 1.9; at BCRP (setting [4]) it was 3.5.
